How the values were obtained:
[1] = target: T1, Mitogen-activated protein kinase kinase kinase 2 (Homo sapiens) (UniProt Q9Y2U5); assay: Inhibition of human MEKK2 using myelin basic protein as substrate in presence of [gamma-33P]ATP at 1 uM after 40 mins by scintillation counter method
T1 sequence (whole entry): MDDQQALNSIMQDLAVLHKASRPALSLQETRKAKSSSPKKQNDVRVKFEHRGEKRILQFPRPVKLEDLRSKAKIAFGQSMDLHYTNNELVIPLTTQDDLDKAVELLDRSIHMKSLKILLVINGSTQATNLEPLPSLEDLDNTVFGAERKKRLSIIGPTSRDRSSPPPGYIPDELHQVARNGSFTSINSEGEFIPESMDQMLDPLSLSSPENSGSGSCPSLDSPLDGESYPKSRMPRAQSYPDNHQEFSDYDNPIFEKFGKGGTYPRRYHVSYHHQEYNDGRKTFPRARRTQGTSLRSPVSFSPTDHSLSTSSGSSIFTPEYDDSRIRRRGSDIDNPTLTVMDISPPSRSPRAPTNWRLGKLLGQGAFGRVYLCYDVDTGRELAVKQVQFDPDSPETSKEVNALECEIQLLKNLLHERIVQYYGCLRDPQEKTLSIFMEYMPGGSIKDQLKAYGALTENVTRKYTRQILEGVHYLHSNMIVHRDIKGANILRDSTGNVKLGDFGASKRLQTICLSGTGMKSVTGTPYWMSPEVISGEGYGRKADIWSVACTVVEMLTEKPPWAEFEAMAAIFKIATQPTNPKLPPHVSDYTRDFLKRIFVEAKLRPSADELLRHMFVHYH

[2] = target: Vascular endothelial growth factor receptor 2 (Homo sapiens) (UniProt P35968); assay: Inhibition of human KDR using myelin basic protein as substrate in presence of [gamma-33P]ATP at 1 uM after 40 mins by scintillation counter method
[3] = target: Epidermal growth factor receptor (Homo sapiens) (UniProt P00533); assay: Inhibition of human EGFR using poly(Glu, Tyr) 4:1 as substrate in presence of [gamma-33P]ATP at 1 uM after 40 mins by scintillation counter method
[4] = target: Serine/threonine-protein kinase B-raf (Homo sapiens) (UniProt P15056); assay: Inhibition of human BRAF using myelin basic protein as substrate in presence of [gamma-33P]ATP at 1 uM after 40 mins by scintillation counter method
[5] = target: Tyrosine-protein kinase ABL1 (Homo sapiens) (UniProt P00519); assay: Inhibition of human Abl using EAIYAAPFAKK as substrate in presence of [gamma-33P]ATP at 1 uM after 40 mins by scintillation counter method
[6] = target: T2, Aurora kinase A (Homo sapiens) (UniProt O14965); assay: Inhibition of human Aurora-A using Kemptide as substrate in presence of [gamma-33P]ATP at 1 uM after 40 mins by scintillation counter method
T2 sequence (whole entry): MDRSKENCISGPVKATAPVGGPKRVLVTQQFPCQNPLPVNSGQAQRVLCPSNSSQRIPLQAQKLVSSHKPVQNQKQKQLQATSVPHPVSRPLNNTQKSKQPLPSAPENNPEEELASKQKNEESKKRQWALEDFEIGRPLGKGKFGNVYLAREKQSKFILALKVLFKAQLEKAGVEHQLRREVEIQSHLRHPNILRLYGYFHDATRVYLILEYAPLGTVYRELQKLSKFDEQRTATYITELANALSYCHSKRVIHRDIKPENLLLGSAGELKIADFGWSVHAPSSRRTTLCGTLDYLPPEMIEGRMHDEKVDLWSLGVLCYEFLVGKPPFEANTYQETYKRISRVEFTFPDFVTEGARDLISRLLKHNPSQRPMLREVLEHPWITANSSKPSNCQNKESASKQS

[7] = target: Dual specificity mitogen-activated protein kinase kinase 1 (Homo sapiens) (UniProt Q02750); assay: Inhibition of human MEK1 using inactive MAPK2 as substrate in presence of [gamma-33P]ATP at 1 uM after 40 mins by scintillation counter method
[8] = target: Proto-oncogene tyrosine-protein kinase Src (Homo sapiens) (UniProt P12931); assay: Inhibition of human Src (1 to 530 residues) using GGEEEEYFELVKKKK as substrate in presence of [gamma-33P]ATP at 1 uM after 40 mins by scintillation counter method
[9] = target: Dual specificity tyrosine-phosphorylation-regulated kinase 1A (Homo sapiens) (UniProt Q13627); assay: Inhibition of human DYRK1A using RRRFRPASPLRGPPK as substrate in presence of [gamma-33P]ATP at 1 uM after 40 mins by scintillation counter method
[10] = target: T3, Inhibitor of nuclear factor kappa-B kinase subunit beta (Homo sapiens) (UniProt O14920); assay: Inhibition of human IKKbeta using KKKKERLLDDRHDSGLDSMKDEE as substrate in presence of [gamma-33P]ATP at 1 uM after 40 mins by scintillation counter method
T3 sequence (whole entry): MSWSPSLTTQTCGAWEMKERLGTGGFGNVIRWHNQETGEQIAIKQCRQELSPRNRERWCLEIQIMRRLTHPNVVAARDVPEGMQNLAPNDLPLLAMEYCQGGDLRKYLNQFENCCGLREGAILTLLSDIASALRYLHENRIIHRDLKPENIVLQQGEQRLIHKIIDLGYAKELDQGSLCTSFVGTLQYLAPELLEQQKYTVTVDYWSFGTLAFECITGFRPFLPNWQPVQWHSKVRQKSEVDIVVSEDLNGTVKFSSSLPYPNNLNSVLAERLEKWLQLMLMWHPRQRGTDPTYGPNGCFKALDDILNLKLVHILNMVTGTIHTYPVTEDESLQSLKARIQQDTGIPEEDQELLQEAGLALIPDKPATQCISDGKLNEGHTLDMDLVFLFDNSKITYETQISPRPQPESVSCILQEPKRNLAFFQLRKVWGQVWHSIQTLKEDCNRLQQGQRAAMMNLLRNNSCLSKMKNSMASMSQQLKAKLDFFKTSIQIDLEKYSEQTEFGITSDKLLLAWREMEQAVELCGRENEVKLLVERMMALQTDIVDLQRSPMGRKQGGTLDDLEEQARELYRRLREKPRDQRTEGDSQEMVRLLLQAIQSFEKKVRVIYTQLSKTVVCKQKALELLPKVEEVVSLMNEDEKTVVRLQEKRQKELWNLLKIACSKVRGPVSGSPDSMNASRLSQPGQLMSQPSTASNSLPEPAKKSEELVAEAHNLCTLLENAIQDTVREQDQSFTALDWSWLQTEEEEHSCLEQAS

Sequence of Proto-oncogene tyrosine-protein kinase Src (Homo sapiens) (P12931 2-536 limits assumed): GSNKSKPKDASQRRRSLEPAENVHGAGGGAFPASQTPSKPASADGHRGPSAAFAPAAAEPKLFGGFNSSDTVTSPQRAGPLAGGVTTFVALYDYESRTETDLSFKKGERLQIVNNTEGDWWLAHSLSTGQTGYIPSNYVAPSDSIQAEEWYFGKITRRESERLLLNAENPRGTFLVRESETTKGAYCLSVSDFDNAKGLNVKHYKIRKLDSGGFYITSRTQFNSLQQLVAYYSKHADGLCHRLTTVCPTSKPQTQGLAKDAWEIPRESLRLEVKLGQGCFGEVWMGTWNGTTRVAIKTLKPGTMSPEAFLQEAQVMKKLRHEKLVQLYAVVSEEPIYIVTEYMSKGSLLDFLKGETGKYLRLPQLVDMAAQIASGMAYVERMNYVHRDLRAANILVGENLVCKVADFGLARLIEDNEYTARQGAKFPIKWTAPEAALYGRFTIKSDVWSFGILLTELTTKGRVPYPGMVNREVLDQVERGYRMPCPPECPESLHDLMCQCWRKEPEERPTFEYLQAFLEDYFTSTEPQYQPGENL
Sequence of Tyrosine-protein kinase ABL1 (Homo sapiens) (P00519 whole entry): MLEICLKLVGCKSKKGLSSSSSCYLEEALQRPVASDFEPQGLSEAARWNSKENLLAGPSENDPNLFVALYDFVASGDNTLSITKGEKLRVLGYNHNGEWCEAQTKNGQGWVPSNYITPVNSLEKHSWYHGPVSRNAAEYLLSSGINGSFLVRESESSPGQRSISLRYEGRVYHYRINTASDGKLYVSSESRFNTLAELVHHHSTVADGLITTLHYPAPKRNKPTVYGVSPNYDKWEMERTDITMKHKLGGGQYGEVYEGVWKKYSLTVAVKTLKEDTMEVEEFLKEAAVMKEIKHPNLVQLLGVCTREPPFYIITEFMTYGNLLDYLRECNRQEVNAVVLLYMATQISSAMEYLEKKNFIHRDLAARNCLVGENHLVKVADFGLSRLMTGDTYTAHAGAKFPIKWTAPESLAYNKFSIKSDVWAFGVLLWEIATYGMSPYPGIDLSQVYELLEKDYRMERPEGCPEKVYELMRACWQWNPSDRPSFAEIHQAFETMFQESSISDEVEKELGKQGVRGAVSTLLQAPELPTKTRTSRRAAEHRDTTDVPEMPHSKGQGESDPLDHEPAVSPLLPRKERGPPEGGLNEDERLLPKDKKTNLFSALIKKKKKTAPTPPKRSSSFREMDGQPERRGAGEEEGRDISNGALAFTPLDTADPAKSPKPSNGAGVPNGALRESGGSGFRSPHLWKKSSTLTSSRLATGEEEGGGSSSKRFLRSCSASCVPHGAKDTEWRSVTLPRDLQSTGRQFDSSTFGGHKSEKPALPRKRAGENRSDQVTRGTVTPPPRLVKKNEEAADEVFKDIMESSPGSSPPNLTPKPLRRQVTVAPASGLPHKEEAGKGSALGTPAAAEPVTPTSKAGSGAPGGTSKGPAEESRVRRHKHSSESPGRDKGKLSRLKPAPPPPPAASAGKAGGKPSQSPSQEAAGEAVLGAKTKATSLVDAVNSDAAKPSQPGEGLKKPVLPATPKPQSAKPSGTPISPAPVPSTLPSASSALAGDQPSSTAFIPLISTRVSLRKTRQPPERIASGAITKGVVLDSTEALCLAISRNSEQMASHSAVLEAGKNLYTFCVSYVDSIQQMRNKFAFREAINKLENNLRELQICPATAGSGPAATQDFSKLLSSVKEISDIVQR
Sequence of Epidermal growth factor receptor (Homo sapiens) (P00533 whole entry): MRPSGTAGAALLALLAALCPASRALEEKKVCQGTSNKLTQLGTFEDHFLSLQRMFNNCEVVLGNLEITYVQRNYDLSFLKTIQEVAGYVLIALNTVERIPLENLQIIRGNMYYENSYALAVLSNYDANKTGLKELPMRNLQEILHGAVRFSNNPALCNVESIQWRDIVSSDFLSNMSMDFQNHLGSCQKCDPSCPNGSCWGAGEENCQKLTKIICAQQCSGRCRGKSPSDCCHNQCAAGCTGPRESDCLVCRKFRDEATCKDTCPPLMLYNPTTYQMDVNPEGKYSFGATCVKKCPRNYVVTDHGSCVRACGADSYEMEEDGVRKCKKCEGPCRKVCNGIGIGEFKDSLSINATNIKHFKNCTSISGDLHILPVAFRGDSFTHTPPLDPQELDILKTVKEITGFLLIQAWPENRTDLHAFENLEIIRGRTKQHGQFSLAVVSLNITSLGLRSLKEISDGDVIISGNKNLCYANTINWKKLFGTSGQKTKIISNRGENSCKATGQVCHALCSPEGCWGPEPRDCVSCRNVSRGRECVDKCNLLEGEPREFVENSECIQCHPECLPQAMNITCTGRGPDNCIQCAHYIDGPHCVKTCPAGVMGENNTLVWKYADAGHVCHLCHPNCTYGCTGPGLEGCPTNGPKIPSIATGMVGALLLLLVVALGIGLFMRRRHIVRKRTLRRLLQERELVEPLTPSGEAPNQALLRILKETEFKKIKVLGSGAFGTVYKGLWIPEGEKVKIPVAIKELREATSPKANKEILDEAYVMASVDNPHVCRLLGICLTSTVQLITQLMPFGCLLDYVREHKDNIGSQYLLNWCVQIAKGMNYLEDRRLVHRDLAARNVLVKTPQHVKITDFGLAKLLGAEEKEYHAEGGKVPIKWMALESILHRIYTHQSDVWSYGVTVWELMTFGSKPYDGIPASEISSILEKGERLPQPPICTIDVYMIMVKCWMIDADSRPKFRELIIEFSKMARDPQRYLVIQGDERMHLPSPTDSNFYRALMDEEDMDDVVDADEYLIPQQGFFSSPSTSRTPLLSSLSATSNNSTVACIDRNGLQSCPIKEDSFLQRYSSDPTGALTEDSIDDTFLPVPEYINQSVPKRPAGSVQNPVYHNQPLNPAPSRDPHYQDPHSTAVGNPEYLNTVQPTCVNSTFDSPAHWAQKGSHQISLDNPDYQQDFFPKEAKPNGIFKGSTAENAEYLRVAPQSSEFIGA
Sequence of Dual specificity mitogen-activated protein kinase kinase 1 (Homo sapiens) (Q02750 whole entry, the tested form may be a part): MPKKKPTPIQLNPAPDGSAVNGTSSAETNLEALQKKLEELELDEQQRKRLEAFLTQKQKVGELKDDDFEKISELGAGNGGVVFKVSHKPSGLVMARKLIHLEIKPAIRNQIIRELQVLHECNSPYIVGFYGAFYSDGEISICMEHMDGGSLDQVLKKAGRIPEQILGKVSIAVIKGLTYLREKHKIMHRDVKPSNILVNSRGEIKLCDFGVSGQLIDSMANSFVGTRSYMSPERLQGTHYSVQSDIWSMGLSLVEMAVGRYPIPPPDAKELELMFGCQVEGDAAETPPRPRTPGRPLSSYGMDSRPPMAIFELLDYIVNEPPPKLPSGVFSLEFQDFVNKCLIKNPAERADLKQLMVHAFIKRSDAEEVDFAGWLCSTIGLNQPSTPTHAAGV
Sequence of Serine/threonine-protein kinase B-raf (Homo sapiens) (P15056 whole entry): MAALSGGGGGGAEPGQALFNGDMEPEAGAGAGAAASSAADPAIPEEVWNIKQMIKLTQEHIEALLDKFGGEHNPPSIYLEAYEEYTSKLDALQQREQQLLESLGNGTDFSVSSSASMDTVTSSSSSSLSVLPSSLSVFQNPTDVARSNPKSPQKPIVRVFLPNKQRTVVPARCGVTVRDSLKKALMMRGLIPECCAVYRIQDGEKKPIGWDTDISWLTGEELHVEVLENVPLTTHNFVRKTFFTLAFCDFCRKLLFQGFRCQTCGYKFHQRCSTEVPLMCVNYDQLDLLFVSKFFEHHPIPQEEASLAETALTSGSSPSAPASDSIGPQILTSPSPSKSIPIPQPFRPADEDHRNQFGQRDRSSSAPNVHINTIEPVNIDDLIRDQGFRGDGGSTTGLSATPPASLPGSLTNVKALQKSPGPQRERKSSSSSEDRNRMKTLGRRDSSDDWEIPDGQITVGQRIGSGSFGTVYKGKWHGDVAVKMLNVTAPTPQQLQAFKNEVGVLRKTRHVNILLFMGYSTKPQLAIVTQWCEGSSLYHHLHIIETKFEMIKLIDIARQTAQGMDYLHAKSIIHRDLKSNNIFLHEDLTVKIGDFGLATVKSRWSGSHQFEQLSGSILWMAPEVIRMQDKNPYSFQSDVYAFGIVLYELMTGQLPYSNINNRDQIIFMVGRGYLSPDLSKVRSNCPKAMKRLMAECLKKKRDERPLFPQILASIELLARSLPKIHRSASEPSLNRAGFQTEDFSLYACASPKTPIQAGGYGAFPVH

## CC(C)n1cnc2c(Nc3cccc(Cl)c3)nc(N[C@@H]3CCCC[C@@H]3N)nc21
[1]
  inhibition: 18%
[2]
  inhibition: -6%
[3]
  inhibition: 3%
[4]
  inhibition: 21%
[5]
  inhibition: 2%
[6]
  inhibition: -5%
[7]
  inhibition: 8%
[8]
  inhibition: 69%
[9]
  inhibition: 28%
[10]
  inhibition: -5%

## CC(C)n1cnc2c(Nc3cccc(Cl)c3)nc(N[C@H]3CCCC[C@@H]3N)nc21
[1]
  inhibition: 47%
[2]
  inhibition: 16%
[3]
  inhibition: -6%
[4]
  inhibition: 10%
[5]
  inhibition: -2%
[6]
  inhibition: 4%
[7]
  inhibition: 10%
[8]
  inhibition: 22%
[9]
  inhibition: 5%
[10]
  inhibition: -2%

## CC(C)n1cnc2c(Nc3cc(N)cc(Cl)c3)nc(N[C@@H]3CCCC[C@@H]3N)nc21 (racemic)
[1]
  inhibition: 48%
[2]
  inhibition: 4%
[3]
  inhibition: -1%
[4]
  inhibition: 5%
[5]
  inhibition: 8%
[6]
  inhibition: 13%
[7]
  inhibition: 6%
[8]
  inhibition: 78%
[9]
  inhibition: 19%
[10]
  inhibition: -9%
